Reference: PubChem BioAssay AID2060484 (Molecular Pharmacology Branch, DTP, NCI, 2025)

System: SUM149PT spheroids with HUVEC/MSC, viability
Test: Anticancer human tumor SUM149PT cell line growth inhibition [GQUAD];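 further: spheroids exposed to drugs for seven days before readout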;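 on viability, T/C: percent viability relative to DMSO vehicle control taken as 100%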
Settings: for IC50: curve of first compound; for viability, T/C: stronger effect = lower value
In short: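 Tumor cells were grown as complex spheroids with HUVEC endothelial cells and mesenchymal stem cells as stroma. G-quadruplex stabilizers were combined with targeted agents over half-log dilutions from near the clinical Cmax, or from 10 microM.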

[1] = second compound 0.0316 µM, first compound 0.0316 µM
[2] = second compound 0.0316 µM, first compound 0.1 µM
[3] = second compound 0.0316 µM, first compound 0.316 µM
[4] = second compound 0.0316 µM, first compound 1 µM
[5] = second compound 0.0316 µM, first compound 3.16 µM
[6] = second compound 0.0316 µM, first compound 10 µM
[7] = second compound 0.1 µM, first compound 0.0316 µM
[8] = second compound 0.1 µM, first compound 0.1 µM
[9] = second compound 0.1 µM, first compound 0.316 µM
[10] = second compound 0.1 µM, first compound 1 µM
[11] = second compound 0.1 µM, first compound 3.16 µM
[12] = second compound 0.1 µM, first compound 10 µM
[13] = second compound 0.316 µM, first compound 0.0316 µM
[14] = second compound 0.316 µM, first compound 0.1 µM
[15] = second compound 0.316 µM, first compound 0.316 µM
[16] = second compound 0.316 µM, first compound 1 µM
[17] = second compound 0.316 µM, first compound 3.16 µM
[18] = second compound 0.316 µM, first compound 10 µM
[19] = second compound 1 µM, first compound 0.0316 µM
[20] = second compound 1 µM, first compound 0.1 µM
[21] = second compound 1 µM, first compound 0.316 µM
[22] = second compound 1 µM, first compound 1 µM
[23] = second compound 1 µM, first compound 3.16 µM
[24] = second compound 1 µM, first compound 10 µM
[25] = second compound 3.16 µM, first compound 0.0316 µM
[26] = second compound 3.16 µM, first compound 0.1 µM
[27] = second compound 3.16 µM, first compound 0.316 µM
[28] = second compound 3.16 µM, first compound 1 µM
[29] = second compound 3.16 µM, first compound 3.16 µM
[30] = second compound 3.16 µM, first compound 10 µM
[31] = second compound 10 µM, first compound 0.0316 µM
[32] = second compound 10 µM, first compound 0.1 µM
[33] = second compound 10 µM, first compound 0.316 µM
[34] = second compound 10 µM, first compound 1 µM
[35] = second compound 10 µM, first compound 3.16 µM
[36] = second compound 10 µM, first compound 10 µM

Cc1cccc(N(C)C(=O)C2C(O)CCN2c2nc(C)cc(C(F)(F)F)c2C#N)c1 (stereo not drawn) + CN(C)c1ccc(Nc2c3ccc(NC(=O)CCN4CCCC4)cc3nc3cc(NC(=O)CCN4CCCC4)ccc23)cc1
IC50 (second compound 0.0316 µM): > 10 µM | IC50 (second compound 0.1 µM): > 10 µM | IC50 (second compound 0.316 µM): > 10 µM | IC50 (second compound 1 µM): > 10 µM | IC50 (second compound 3.16 µM): > 10 µM | IC50 (second compound 10 µM): 4.02 µM | viability, T/C [1]: 97.4% | viability, T/C [2]: 103% | viability, T/C [3]: 104% | viability, T/C [4]: 103% | viability, T/C [5]: 107% | viability, T/C [6]: 110% | viability, T/C [7]: 108% | viability, T/C [8]: 95.3% | viability, T/C [9]: 91.5% | viability, T/C [10]: 100% | viability, T/C [11]: 98.7% | viability, T/C [12]: 103% | viability, T/C [13]: 92.7% | viability, T/C [14]: 93.7% | viability, T/C [15]: 88.7% | viability, T/C [16]: 101% | viability, T/C [17]: 94% | viability, T/C [18]: 90.6% | viability, T/C [19]: 85.8% | viability, T/C [20]: 85.2% | viability, T/C [21]: 76.2% | viability, T/C [22]: 87.9% | viability, T/C [23]: 84.9% | viability, T/C [24]: 81.5% | viability, T/C [25]: 99.2% | viability, T/C [26]: 71% | viability, T/C [27]: 77.2% | viability, T/C [28]: 77.1% | viability, T/C [29]: 91.2% | viability, T/C [30]: 68% | viability, T/C [31]: 82.1% | viability, T/C [32]: 82.3% | viability, T/C [33]: 74.3% | viability, T/C [34]: 76% | viability, T/C [35]: 53% | viability, T/C [36]: 37.9%

Cn1ncnc1[C@H]1c2n[nH]c(=O)c3cc(F)cc(c23)N[C@@H]1c1ccc(F)cc1 + CN(C)c1ccc(Nc2c3ccc(NC(=O)CCN4CCCC4)cc3nc3cc(NC(=O)CCN4CCCC4)ccc23)cc1
IC50 (second compound 0.0316 µM): > 0.316 µM | IC50 (second compound 0.1 µM): > 0.316 µM | IC50 (second compound 0.316 µM): > 0.316 µM | IC50 (second compound 1 µM): > 0.316 µM | IC50 (second compound 3.16 µM): > 0.316 µM | IC50 (second compound 10 µM): > 0.316 µM | viability, T/C (second compound 0.0316 µM, first compound 0.000999 µM): 110% | viability, T/C (second compound 0.0316 µM, first compound 0.00316 µM): 91.4% | viability, T/C (second compound 0.0316 µM, first compound 0.00999 µM): 94.5% | viability, T/C [1]: 92.1% | viability, T/C (second compound 0.0316 µM, first compound 0.0999 µM): 91.9% | viability, T/C [3]: 69.4% | viability, T/C (second compound 0.1 µM, first compound 0.000999 µM): 95% | viability, T/C (second compound 0.1 µM, first compound 0.00316 µM): 99.5% | viability, T/C (second compound 0.1 µM, first compound 0.00999 µM): 91.5% | viability, T/C [7]: 89.5% | viability, T/C (second compound 0.1 µM, first compound 0.0999 µM): 92.4% | viability, T/C [9]: 66.6% | viability, T/C (second compound 0.316 µM, first compound 0.000999 µM): 96% | viability, T/C (second compound 0.316 µM, first compound 0.00316 µM): 83.4% | viability, T/C (second compound 0.316 µM, first compound 0.00999 µM): 98.1% | viability, T/C [13]: 78.2% | viability, T/C (second compound 0.316 µM, first compound 0.0999 µM): 81.1% | viability, T/C [15]: 64.9% | viability, T/C (second compound 1 µM, first compound 0.000999 µM): 87.6% | viability, T/C (second compound 1 µM, first compound 0.00316 µM): 88.1% | viability, T/C (second compound 1 µM, first compound 0.00999 µM): 77% | viability, T/C [19]: 81.5% | viability, T/C (second compound 1 µM, first compound 0.0999 µM): 81.2% | viability, T/C [21]: 56.7% | viability, T/C (second compound 3.16 µM, first compound 0.000999 µM): 79.3% | viability, T/C (second compound 3.16 µM, first compound 0.00316 µM): 89% | viability, T/C (second compound 3.16 µM, first compound 0.00999 µM): 80.3% | viability, T/C [25]: 80.8% | viability, T/C (second compound 3.16 µM, first compound 0.0999 µM): 73.8% | viability, T/C [27]: 56% | viability, T/C (second compound 10 µM, first compound 0.000999 µM): 88.9% | viability, T/C (second compound 10 µM, first compound 0.00316 µM): 79% | viability, T/C (second compound 10 µM, first compound 0.00999 µM): 72.2% | viability, T/C [31]: 83.5% | viability, T/C (second compound 10 µM, first compound 0.0999 µM): 74.2% | viability, T/C [33]: 52.3%

CC1COCCN1c1cc(-c2ccnn2C)c2ccnc(-c3ccn[nH]3)c2n1 (stereo not drawn) + Cc1cnc(CNC(=O)c2c(=O)c3ccc(N4CCCN(C)CC4)nc3n3c2sc2ccccc23)cn1
IC50 (second compound 0.0316 µM): < 0.0316 µM | IC50 (second compound 0.1 µM): < 0.0316 µM | IC50 (second compound 0.316 µM): < 0.0316 µM | IC50 (second compound 1 µM): < 0.0316 µM | IC50 (second compound 3.16 µM): < 0.0316 µM | IC50 (second compound 10 µM): < 0.0316 µM | viability, T/C [1]: 14.7% | viability, T/C [2]: 12.5% | viability, T/C [3]: 18.1% | viability, T/C [4]: 18.2% | viability, T/C [5]: 20.6% | viability, T/C [6]: 19.2% | viability, T/C [7]: 17.1% | viability, T/C [8]: 19.6% | viability, T/C [9]: 18.7% | viability, T/C [10]: 20.3% | viability, T/C [11]: 20.3% | viability, T/C [12]: 20.4% | viability, T/C [13]: 21.1% | viability, T/C [14]: 20.5% | viability, T/C [15]: 24.3% | viability, T/C [16]: 20.3% | viability, T/C [17]: 21.9% | viability, T/C [18]: 18.4% | viability, T/C [19]: 21.4% | viability, T/C [20]: 23.1% | viability, T/C [21]: 26.4% | viability, T/C [22]: 21.5% | viability, T/C [23]: 20.7% | viability, T/C [24]: 17.5% | viability, T/C [25]: 25.9% | viability, T/C [26]: 23.6% | viability, T/C [27]: 24.2% | viability, T/C [28]: 20.8% | viability, T/C [29]: 18.8% | viability, T/C [30]: 15.9% | viability, T/C [31]: 0.11% | viability, T/C [32]: 0.15% | viability, T/C [33]: 0.93% | viability, T/C [34]: 1.21% | viability, T/C [35]: 1.74% | viability, T/C [36]: 0.18%

O=c1[nH]cc(F)c(=O)[nH]1 + CN(C)c1ccc(Nc2c3ccc(NC(=O)CCN4CCCC4)cc3nc3cc(NC(=O)CCN4CCCC4)ccc23)cc1
IC50 (second compound 0.0316 µM): 8.99 µM | IC50 (second compound 0.1 µM): > 10 µM | IC50 (second compound 0.316 µM): 8.35 µM | IC50 (second compound 1 µM): 8.64 µM | IC50 (second compound 3.16 µM): 6.64 µM | IC50 (second compound 10 µM): 4.53 µM | viability, T/C [1]: 105% | viability, T/C [2]: 93.2% | viability, T/C [3]: 99.2% | viability, T/C [4]: 98.8% | viability, T/C [5]: 63.5% | viability, T/C [6]: 48.6% | viability, T/C [7]: 100% | viability, T/C [8]: 92% | viability, T/C [9]: 94.4% | viability, T/C [10]: 99.3% | viability, T/C [11]: 61.5% | viability, T/C [12]: 57.3% | viability, T/C [13]: 86.5% | viability, T/C [14]: 93.3% | viability, T/C [15]: 86.5% | viability, T/C [16]: 89.5% | viability, T/C [17]: 70% | viability, T/C [18]: 46.2% | viability, T/C [19]: 83.5% | viability, T/C [20]: 91.6% | viability, T/C [21]: 94.8% | viability, T/C [22]: 99.4% | viability, T/C [23]: 68.8% | viability, T/C [24]: 47.2% | viability, T/C [25]: 81.5% | viability, T/C [26]: 80% | viability, T/C [27]: 82.8% | viability, T/C [28]: 92.5% | viability, T/C [29]: 60% | viability, T/C [30]: 44.5% | viability, T/C [31]: 80.6% | viability, T/C [32]: 80.9% | viability, T/C [33]: 91.2% | viability, T/C [34]: 94% | viability, T/C [35]: 52.5% | viability, T/C [36]: 44.3%
